Converted amounts (≈) assume the structure as drawn.
Legend:
Format in all cases: cell-based
[1] = test system: Pseudomonas aeruginosa UC-12120; assay: minimum inhibitory concentration (MIC) testing according to CLSI guidelines, Pseudomonas aeruginosa; details: Pseudomonas aeruginosa, UC12120; UC-12120, wild-type, labeled as 1091-05; overnight incubation; lower of duplicate values; read-out: AB-MBT: Pseudomonas aeruginosa 1091-05: MIC (MstRcn)
Description: (§1) In order to assess the compounds biological activity, the in vitro anti-bacterial activity of selected compounds described in the Examples 1-69 was evaluated by minimum inhibitory concentration (MIC) testing according to Clinical and Laboratory Standards Institute (CLSI, formerly NCCLS) guidelines. See: Clinical and Laboratory Standards Institute. Methods for Dilution Antimicrobial Susceptibility Tests for Bacteria that Grow Aerobically; Approved Standard-Eighth Edition. CLSI document M7-A8 [ISBN 1-56238-689-1]. Clinical and Laboratory Standards Institute, 940 West Valley Road, Suite 1400, Wayne, Pa. 19087-1898 USA, 2006; also Clinical and Laboratory Standards Institute. Performance Standards for Antimicrobial Susceptibility Testing; Twentieth Informational Supplement. CLSI document M100-S20 [ISBN1-56238-716-2]. Clinical and Laboratory Standards Institute.
(§2) The MIC determination is a standard laboratory method for evaluating the antibacterial activity of a compound. The MIC represents the lowest drug concentration that inhibits visible growth of bacteria following overnight incubation. […] Typically, the drug concentration range is broken down into 2-fold increments (e.g. 0.06 μg/mL, 0.12 μg/mL. 0.25 μg/mL, 0.50 μg/mL, 1.0 μg/mL, etc.) and the various drug concentrations are all individually incubated overnight with approximately the same number of bacteria. The MIC is then determined by visually inspecting the drug effect at each concentration, and identifying the lowest drug concentration that has inhibited bacterial growth as compared to the drug free control. Typically, bacteria continue to grow at drug concentrations lower than the MIC and don't grow at concentrations at and above the MIC.
(§3) The MIC values described in Table 1 below were derived from assays wherein each test compound was evaluated in duplicate. In cases where the duplicate values varied by 0-2-fold, the lower of the two values was reported below. Generally speaking, if the duplicate values varied by more than 2-fold, the assay was considered non-valid and was repeated until the variation between duplicate runs was ≦2-fold. In line with the CLSI guidelines referred to above, both control organisms and reference compounds were utilized in each MIC assay to provide proper quality control. MIC values generated with these control organisms and reference compounds were required to fall within a defined range for the assay to be considered valid and be included herein. Those skilled in the art will recognize that MIC values can and do vary from experiment to experiment. Generally speaking, it should be recognized that MIC values often vary +/−2-fold from experiment to experiment. While a single MIC is reported for each compound and each microorganism, the reader should not conclude that each compound was only tested once. Several of the compounds were subjected to multiple tests. The data reported in Table 1 is reflective of the compounds relative activity and different MICs may have been generated on these occasions in light with the guidelines described above.
(§4) The following bacterial strains were used in these MIC determinations:
1) Pseudomonas aeruginosa UC-12120: Wild-type, labeled as 1091-05;

[2] = test system: Klebsiella pneumoniae 1000-02; assay: minimum inhibitory concentration (MIC) testing according to CLSI guidelines, Klebsiella pneumoniae; details: Klebsiella pneumoniae; ciprofloxacin-resistant, ESBL-expressing clinical isolate 1000-02; overnight incubation; lower of duplicate values; read-out: AB-MBT: Klebsiella pneumoniae 1000-02: MIC (MstRcnt)
Description: as §1, §2, §3, §4
2) Klebsiella pneumoniae: Ciprofloxacin-resistant isolate, expresses extended-spectrum beta-lactamases (ESBL), clinical isolate, labeled as 1000-02;

[3] = test system: Acinetobacter baumannii/haemolyticus AB-3167; assay: minimum inhibitory concentration (MIC) testing according to CLSI guidelines, Acinetobacter; details: Acinetobacter baumannii; multidrug-resistant clinical isolate AB-3167; overnight incubation; lower of duplicate values; read-out: AB-MBT: Acinetobacter baumanii AB-3167: MIC (MstRcnt)
Description: as §1, §2, §3, §4
3) Acinetobacter baumannii/haemolyticus: Multidrug-resistant clinical isolate, labeled as AB-3167.

Compound | MIC [1] [µg/mL] | MIC [2] [µg/mL] | MIC [3] [µg/mL]
CC(C)(O/N=C(\C(=O)N[C@@H]1C(=O)N(S(=O)(=O)O)[C@@H]1Cn1cc(COCc2cc(=O)c(O)cn2O)nn1)c1csc(N)n1)C(=O)O [Example 1, 2-({[(1Z)-1-(2-amino-1,3-thiazol-4-yl)-2-({(2R,3S)-2-[(4-{[(1,5-dihydroxy-4-oxo-1,4-dihydropyridin-2-yl)methoxy]methyl}-1H-1,2,3-triazol-1-yl)methyl]-4-oxo-1-sulfoazetidin-3-yl}amino)-2-oxoethylidene]amino}oxy)-2-methylpropanoic acid] | 0.25 (≈ 0.372 µM) | 0.25 (≈ 0.372 µM) | 0.5 (≈ 0.744 µM)
CC(C)(O/N=C(\C(=O)N[C@@H]1C(=O)N(S(=O)(=O)O)[C@@H]1Cn1cc(-c2cc(=O)c(O)c[nH]2)nn1)c1csc(N)n1)C(=O)O [Example 2, 2-({[(1Z)-1-(2-amino-1,3-thiazol-4-yl)-2-{[(2R,3S)-2-{[4-(5-hydroxy-4-oxo-1,4-dihydropyridin-2-yl)-1H-1,2,3-triazol-1-yl]methyl}-4-oxo-1-sulfoazetidin-3-yl]amino}-2-oxoethylidene]amino}oxy)-2-methylpropanoic acid] | 2 (≈ 3.27 µM) | 8 (≈ 13.1 µM) | 8 (≈ 13.1 µM)
CC(C)(O/N=C(\C(=O)N[C@@H]1C(=O)N(S(=O)(=O)O)[C@@H]1Cn1cc(-c2cc(=O)c(O)cn2O)nn1)c1csc(N)n1)C(=O)O [Example 3, 2-({[(1Z)-1-(2-amino-1,3-thiazol-4-yl)-2-{[(2R,3S)-2-{[4-(1,5-dihydroxy-4-oxo-1,4-dihydropyridin-2-yl)-1H-1,2,3-triazol-1-yl]methyl}-4-oxo-1-sulfoazetidin-3-yl]amino}-2-oxoethylidene]amino}oxy)-2-methylpropanoic acid] | 0.125 (≈ 0.199 µM) | 0.25 (≈ 0.398 µM) | 0.5 (≈ 0.797 µM)
CC(C)(O/N=C(\C(=O)N[C@@H]1C(=O)N(S(=O)(=O)O)[C@@H]1CNC(=O)NCc1cc(=O)c(O)cn1O)c1csc(N)n1)C(=O)O [Example 4, 2-({[(1Z)-1-(2-amino-1,3-thiazol-4-yl)-2-({(2R,3S)-2-[({[(1,5-dihydroxy-4-oxo-1,4-dihydropyridin-2-yl)methyl]carbamoyl}amino)methyl]-4-oxo-1-sulfoazetidin-3-yl}amino)-2-oxoethylidene]amino}oxy)-2-methylpropanoic acid] | 0.125 (≈ 0.198 µM) | 0.125 (≈ 0.198 µM) | 0.5 (≈ 0.79 µM)
CC(C)(O/N=C(\C(=O)N[C@@H]1C(=O)N(S(=O)(=O)[O-])[C@@H]1CNC(=O)OCc1cc(=O)c(O)cn1O)c1csc(N)n1)C(=O)[O-].[Na+].[Na+] [Example 5, disodium 2-({[(1Z)-1-(2-amino-1,3-thiazol-4-yl)-2-({(2R,3S)-2-[({[(1,5-dihydroxy-4-oxo-1,4-dihydropyridin-2-yl)methoxy]carbonyl}amino)methyl]-4-oxo-1-sulfonatoazetidin-3-yl}amino)-2-oxoethylidene]amino}oxy)-2-methylpropanoate] | 0.125 | 4 | 1
CC(C)(O/N=C(\C(=O)N[C@@H]1C(=O)N(S(=O)(=O)O)[C@@H]1COC(=O)CNC(=O)c1cc(O)c(O)cn1)c1csc(N)n1)C(=O)O [Example 6, 2-({[(1Z)-1-(2-amino-1,3-thiazol-4-yl)-2-({(2S,3S)-2-[({N-[(4,5-dihydroxypyridin-2-yl)carbonyl]glycyl}oxy)methyl]-4-oxo-1-sulfoazetidin-3-yl}amino)-2-oxoethylidene]amino}oxy)-2-methylpropanoic acid] |  | 8 (≈ 12.4 µM) | 1 (≈ 1.55 µM)
CC(C)(O/N=C(\C(=O)N[C@@H]1C(=O)N(S(=O)(=O)O)[C@@H]1COC(=O)CNC(=O)c1cc(=O)c(O)cn1O)c1csc(N)n1)C(=O)O [Example 7, 2-({[(1Z)-1-(2-amino-1,3-thiazol-4-yl)-2-({(2S,3S)-2-[({N-[(1,5-dihydroxy-4-oxo-1,4-dihydropyridin-2-yl)carbonyl]glycyl}oxy)methyl]-4-oxo-1-sulfoazetidin-3-yl}amino)-2-oxoethylidene]amino}oxy)-2-methylpropanoic acid] | 0.125 (≈ 0.189 µM) | 8 (≈ 12.1 µM) | 0.5 (≈ 0.756 µM)
CC(C)(O/N=C(\C(=O)N[C@@H]1C(=O)N(S(=O)(=O)O)[C@@H]1CNC(=O)C1CN(C(=O)c2cc(=O)c(O)c[nH]2)C1)c1csc(N)n1)C(=O)O [Example 8, 2-({[(1Z)-1-(2-amino-1,3-thiazol-4-yl)-2-{[(2R,3S)-2-{[({1-[(5-hydroxy-4-oxo-1,4-dihydropyridin-2-yl)carbonyl]azetidin-3-yl}carbonyl)amino]methyl}-4-oxo-1-sulfoazetidin-3-yl]amino}-2-oxoethylidene]amino}oxy)-2-methylpropanoic acid] | 1 (≈ 1.49 µM) | 4 (≈ 5.96 µM) | 1 (≈ 1.49 µM)
CC(C)(O/N=C(\C(=O)N[C@@H]1C(=O)N(S(=O)(=O)O)[C@@H]1CNC(=O)C1CN(Cc2cc(=O)c(O)c[nH]2)C1)c1csc(N)n1)C(=O)O [Example 9, 2-({[(1Z)-1-(2-amino-1,3-thiazol-4-yl)-2-{[(2R,3S)-2-{[({1-[(5-hydroxy-4-oxo-1,4-dihydropyridin-2-yl)methyl]azetidin-3-yl}carbonyl)amino]methyl}-4-oxo-1-sulfoazetidin-3-yl]amino}-2-oxoethylidene]amino}oxy)-2-methylpropanoic acid] | 4 (≈ 6.09 µM) | 4 (≈ 6.09 µM) | 2 (≈ 3.05 µM)
CC(C)(O/N=C(\C(=O)N[C@@H]1C(=O)N(S(=O)(=O)O)[C@@H]1CNC(=O)c1cc(=O)c(O)c[nH]1)c1csc(N)n1)C(=O)O [Example 10, 2-({[(1Z)-1-(2-amino-1,3-thiazol-4-yl)-2-{[(2R,3S)-2-({[(5-hydroxy-4-oxo-1,4-dihydropyridin-2-yl)carbonyl]amino}methyl)-4-oxo-1-sulfoazetidin-3-yl]amino}-2-oxoethylidene]amino}oxy)-2-methylpropanoic acid] | 0.125 (≈ 0.213 µM) | 0.5 (≈ 0.851 µM) | 0.25 (≈ 0.425 µM)
CC(C)(O/N=C(\C(=O)N[C@@H]1C(=O)N(S(=O)(=O)[O-])[C@@H]1CNC(=O)c1cc(=O)c(O)cn1O)c1csc(N)n1)C(=O)[O-].[Na+].[Na+] [Example 11, 2-({[(1Z)-1-(2-amino-1,3-thiazol-4-yl)-2-{[(2R,3S)-2-({[(1,5-dihydroxy-4-oxo-1,4-dihydropyridin-2-yl)carbonyl]amino}methyl)-4-oxo-1-sulfoazetidin-3-yl]amino}-2-oxoethylidene]amino}oxy)-2-methylpropanoic acid, disodium salt] | 0.5 | 0.06 | 1
CC(C)(O/N=C(\C(=O)N[C@@H]1C(=O)N(S(=O)(=O)O)[C@@H]1COC(=O)c1cc(-c2cc(=O)c(O)c[nH]2)no1)c1csc(N)n1)C(=O)O [Example 12, 2-({[(1Z)-1-(2-amino-1,3-thiazol-4-yl)-2-({(2S,3S)-2-[({[3-(5-hydroxy-4-oxo-1,4-dihydropyridin-2-yl)isoxazol-5-yl]carbonyl}oxy)methyl]-4-oxo-1-sulfoazetidin-3-yl}amino)-2-oxoethylidene]amino}oxy)-2-methylpropanoic acid] | 4 (≈ 6.1 µM) | 0.25 (≈ 0.381 µM) | 16 (≈ 24.4 µM)
